We go through one compound from patent US20060078502A1, “Charge neutral complexes of paramagnetic metals as intracellular magnetic resonance imaging contrast agents” (priority 2004, published 2006).

For data set [1], the system named is human neutrophils. As to the kind of experiment: Kinetics of complex loading into cells. Format: cell-based. The conditions noted are these: 37° C., neutrophils in donor plasma, 3.7 mg gadolinium. The method, then:
Kinetics of Complex Loading into Cells. For this study, human neutrophils were obtained from a single donor and suspended in 50 microliters of the same donor's plasma in a series of test tubes. The neutrophils were incubated at 37° C. with gadolinium pyrithione complex in a shaker bath. The amount of gadolinium pyrithione used for each test tube provided 3.7 mg of gadolinium, which was added to the test tube in 250 microliters of acetate buffer. After various incubation times, the neutrophil cells were centrifuged, washed with buffer and the amount of neutrophil-bound gadolinium was calculated.

The nature of data set [2]: Storage stability of the complex (solution formulation, lyophilized). Format: physicochemical. To be noted: after one year of storage in the refrigerator; acetate-dextrose buffer, pH 6.4. The method, then: The contrast agent of the invention can be packaged into kit form. Conveniently, the complexes are formed as described herein, sterilized, filled into sterile bottles and then freeze-dried (lyophilized). The lyophilized complex is stable when stored for at least one year at 4° C. The lyophilized complex is reconstituted in acetate buffer (about 0.2 M NaOAc, pH 6.0 to 6.4) to the desired concentration for injection for use.
Fifty microliters of the gadolinium chloride solution is mixed with 250-400 microliters of the pyrithione solution. A white precipitate of gadolinium pyrithione complex is formed, which is vortexed for good mixing. The gadolinium pyrithione complex is dissolved in 1250 microliters of 0.2 molar acetate-dextrose buffer. The final pH is adjusted to 6.4 with a pH electrode (Beckman-Coulter). The osmolarity of the solution is checked by the freezing point method to 275 mOsmole. The gadolinium pyrithione complex solution is sterilized by membrane filtration (0.22 micrometer filter) and stored in a refrigerator.
(§1) This formulation is found to be stable after one year of storage in the refrigerator. It is soluble in 0.2 molar acetate buffer, in a mixture of acetate buffer and saline or human plasma facilitating the storage of Gd-complex, its transport and control of reconstitution by adjustment of injectate volume, and its use in cell-tagging and administration of tagged cells.

Data set [3] is described as follows: Solubility of the complex. The class given is physicochemical. The conditions noted are these: 0.2 molar acetate buffer; mixture of acetate buffer and saline or human plasma.
From the text: A paramagnetic metal atom has one or more unpaired […], providing a half-integral “spin” quantum number. For metal complex MRI contrast agents, the MRI relaxation efficiency per molecule depends on the nature of the metal in the chelate complex and the size of the metal chelate complex. These contrast agents serve as relaxation sinks for the protons of adjacent water molecules. The metal complex lattice receives the energy from the protons excited by radiofrequency (RF) pulses. […] This facilitates energy transfer, and provides increased imaging efficiency. The complexes of the present invention are soluble in lipids and provide relaxivities in the range 50-150 millimole^−1 second^−1. The gadolinium complexes of this invention, for instance, provide T1 relaxivity values of 80 per millimole per second and T2 values of 93 millimole^−1 second^−1. The complexes of the present invention are thus particularly useful as intra-cellular MRI contrast agents.
as §1

Data set [4] has as its system plasma lipoproteins (VLDL, LDL and HDL). As to the kind of experiment: Kinetics of gadolinium complex binding to plasma lipoproteins. The class given is in vitro ADME. To be noted: Gd-153 labeled, 60 minutes at room temperature, density gradient separation. The method, then: For this study, the galadolinium pyrithione complex labeled with Gd-153 was incubated directly with isolated lipoprotein particles in acetate-citrate buffer or was incubated with intact plasma for 60 minutes at room temperature. Very low, low and high-density lipoproteins (VLDL, LDL and HDL) were separated by cesium chloride density gradients (1.06 and 1.25 g/ml) in an ultracentrifuge (Beckman L8-55) in a swinging bucket rotor using standard protocols. The mixture in 4.5 ml in polyallomer tubes was spun at 210,000 g for 20 hours. The plasma proteins in the […], and layers representing each of VLDL, LDL and HDL were removed from the top of the tube by suction. The amount of gadolinium pyrithione bound to VLDL, LDL, HDL and plasma proteins was measured by counting the radioactivity in each fraction with the gamma well counter. The majority of gadolinium complexes were bound to lipoproteins. Accordingly, the gadolinium-tagged lipoprotein particles are useful to localize the sites of vulnerable plaques in patients, thus identifying the rupture-prone vulnerable plaques in the coronary or carotid arteries with MRI.

For data set [5], the system named is C3H mouse. Kind of data set: MRI processing and imaging of a mouse after intravenous administration. Format: in vivo. From the text: A Bruker 7.0 Tesla MRI System (BioSpin MRI Gmbh, Avance) operated at 300 MHz was used in this study. The system parameters are optimized for high resolution imaging with either T1-weighted (Gd-complexes) or T2-weighted agents (Fe-complexes). The mouse was placed on a stereotactic holder with a prone position. The holder stayed in the center of the 32 mm bore of the transmitter-receiver RF coil. The tail-vein was cannulated with a 27-29 G needle for delivery of contrast agents via slow infusion. 0.2 ml of 6 μM of the gadolium pyrithione complex was administered per dose. Two doses were administered 27 minutes apart. After acquisition of scout images, T1-weighted data were acquired with a spoiled gradient echo sequence, T1=100 to 700 ms, for example, 200 ms, TR (repetition time)=10 to 500 ms, for example, 13 ms, TE (echo time)=5 to 10 ms, for example, 6 ms, and flip angle=60-90 degree. Data were acquired before and after injection of contrast media to evaluate the reduction of tissue T1-values from 500-700 ms to 100-200 ms with the Gd-complexes or Gd-tagged cells.
FIG. 1 presents a T1-weighted MR image (coronal slice, 1 mm thickness) of the C3H mouse at 3 minutes after the second intravenous administration of Gd-(tris)pyrithione complex, providing an image at 3 and 30 minutes post administration. […] The conclusion that the complex is stable is reached because, unstable Gd-complexes hydrolyze and Gd-colloids form and localize in the macrophage pool of reticuloendothelial system of liver, spleen and bone marrow.

The structures appear in SMILES notation.

On to `[Gd+3].[O-][n+]1ccccc1[S-].[O-][n+]1ccccc1[S-].[O-][n+]1ccccc1[S-]` [gadolinium pyrithione complex, gadolinium (tris)pyrithione], for which the “Gadolinium (% in cells)” value in data set [1] (incubation time 05 minutes) is reported as 99.21%; in data set [1] (incubation time 10 minutes) it was 99.75%; in data set [1] (incubation time 30 minutes), 99.36%; in data set [1] (incubation time 45 minutes), 99.11%. Moreover, in data set [2], the “stability of formulation on storage” value is on record as “stable”. In data set [3], the solubility result was “soluble”. In addition, in data set [4], the “fraction of complex bound to lipoproteins” value is “majority”. Moreover, in data set [5] (3 and 30 minutes post administration), the “imaging of liver, spleen and bone marrow (reticuloendothelial system)” value is on record as “None of these tissues were imaged”. In addition, the “in vivo stability of the agent” value in data set [5] (C3H mouse, intravenous, two doses 27 minutes apart, T1-weighted MRI) is listed as “stable”. Further, the “localization in late phase” value in data set [5] (thirty minutes after the first administration) is “bladder”. Moreover, the “localization in early phase post-IV injection” value in data set [5] (three minutes after the second administration) is given as “heart”.
